Source: publication PMC4446596, “Functional Diversity of Anti-Lipopolysaccharide Factor Isoforms in Shrimp and Their Characters Related to Antiviral Activity” (Marine Drugs, 2015)
Where a SMILES comes first, the peptide text is derived from it.

Columns and labels:
[1] = test system: WSSV; experiment: Antiviral activity detection: WSSV pre-incubated with peptide injected into E. carinicauda, in vivo WSSV copy number; design: species or system Exopalaemon carinicauda; settings: E. carinicauda pleopods, 24 h post injection; WSSV (10^3 copies/μL) pre-incubated 2 h at room temperature with 50 μM peptide, 10 μL injected; VP28 real-time PCR; n = 15; WSSV group 1.21 × 10^5, blank 1.31 × 10^3
Description: Exopalaemon carinicauda is being regarded as a good crustacean model animal for WSSV infection experiments. In this study, healthy E. carinicauda with a body length of 5.43 ± 0.30 cm and a body weight of 2.62 ± 0.42 g were used as experimental animals for WSSV infection assay. Animals were acclimatized in the aerated seawater at 25 °C for 1 day before experiments.
In order to learn the effect of synthetic LBD peptides on WSSV infection, WSSV pre-incubated with different peptides was injected into E. carinicauda and the WSSV copy number in the pleopods of E. carinicauda was detected. E. carinicauda was classified into 13 groups and each group contained 18 to 20 individuals. The 13 groups were named as Blank, WSSV, pGFP, LBD1, LBD2, LBD3, LBD4, LBD5, LBD6, LBD7, sLBD2, LBD2-K and LBD4+K, respectively. Synthetic peptides were diluted into 50 μM with PBS (pH 7.4). WSSV was incubated with each peptide solution for 2 h at room temperature with a final concentration 10^3 copies/μL. […] For WSSV group, each shrimp was injected with 10 μL WSSV incubated with PBS (pH 7.4) for 2 h at room temperature. For the other groups (LBD1–LBD7, sLBD2, LBD2-K and LBD4+K), each shrimp was injected with 10 μL of WSSV solution after incubation with corresponding synthetic peptides, respectively. At 24 h post injection (hpi), the pleopods of 15 shrimps in each group were collected and the pleopods from three individuals were put together as one sample. Total DNA of each sample was extracted using the Genomic DNA Kit (Tiangen, China). The viral copy number was measured by detecting the level of VP28 using real-time PCR as described previously.

[2] = test system: E. coli; experiment: Inhibition zone test; format: cell-based, Escherichia coli; settings: 20 μL of 64 μM peptide in PBS pH 7.4 on 6 mm filter paper, solid LB plate, 37 °C, 24 h
Description: (§1) Gram-negative bacteria, including Escherichia coli and Aeromonas hydrophila, and Gram-positive bacteria, including Micrococcus luteus and Bacillus simplex were used for antibacterial analyses. The strains were incubated in fresh LB medium overnight at 37 °C for E. coli, M. luteus and 28 °C for A. hydrophila, B. simplex.
(§2) The antibacterial activities of LBD peptides were examined by inhibition zone test. The overnight cultures of bacteria were diluted 100 times and cultured in LB medium at 37 °C (E. coli and M. luteus) or 28 °C (A. hydrophila and B. simplex) for 6 h. These cultures were then diluted 100 times with LB medium separately, and 200 μL solutions from each diluted cultures was taken out and spread on the solid LB medium plate uniformly. Sterile filter paper with a diameter of 6 mm was put on the surface of solid LB medium gently. Twenty microliters of 64 μM peptide solution dissolved in PBS (pH 7.4) was added to the center of filter paper with a diameter of 6 mm. Twenty microliters PBS and 20 μL of 64 μM pGFP peptide were used as negative controls. […] ampicillin solutions was used as the positive control for E. coli, M. luteus and B. simplex culture, and 50 μM kanamycin sulfates was used as the positive control for A. hydrophila culture. The plates were cultured at 37 °C (E. coli and M. luteus) or 28 °C (A. hydrophila and B. simplex) for 24 h.

[3] = test system: M. luteus; experiment: Inhibition zone test; format: cell-based, Micrococcus luteus; settings: 20 μL of 64 μM peptide in PBS pH 7.4 on 6 mm filter paper, solid LB plate, 37 °C, 24 h
Description: as §1, §2

[4] = test system: A. hydrophila; experiment: Inhibition zone test; format: cell-based, Aeromonas hydrophila; settings: 20 μL of 64 μM peptide in PBS pH 7.4 on 6 mm filter paper, solid LB plate, 28 °C, 24 h
Description: as §1, §2

Molecule	WSSV copy number [1]	Inhibition zone [2]	Inhibition zone [3]	Inhibition zone [4]
CSCC[C@@H]1NC(=O)[C@H](CCCNC(=N)N)NC(=O)CNC(=O)[C@H](CC(N)=O)NC(=O)[C@H](Cc2ccccc2)NC(=O)[C@H](Cc2ccc(O)cc2)NC(=O)[C@H](CC(C)C)NC(=O)[C@H](CCC(=O)O)NC(=O)[C@H](Cc2c[nH]c3ccccc23)NC(=O)[C@H](CCCNC(=N)N)NC(=O)[C@H](Cc2ccc(O)cc2)NC(=O)[C@H](Cc2ccccc2)NC(=O)[C@H](CO)NC(=O)[C@@H]2CCCN2C(=O)[C@H](CCCNC(=N)N)NC(=O)[C@H](CCC(N)=O)NC(=O)[C@H](CO)NC(=O)[C@H](Cc2ccc(O)cc2)NC(=O)[C@H](CCCNC(=N)N)NC(=O)[C@@H](NC(=O)[C@H](CO)NC(C)=O)CSSC[C@@H](C(=O)N2CCC[C@H]2C(N)=O)NC(=O)[C@H](Cc2c[nH]c3ccccc23)NC1=O [LBD4] (HELM PEPTIDE1{[ac].S.C.R.Y.S.Q.R.P.S.F.Y.R.W.E.L.Y.F.N.G.R.M.W.C.P.[am]}$PEPTIDE1,PEPTIDE1,3:R3-24:R3$$$V2.0)	7.24 × 10^4 copies/ng DNA	apparent inhibition zones		
Ac-FKRWQLYFRG-NH2 [sLBD2, a part (ten amino acid residues) of LBD]	4.04 × 10^3 copies/ng DNA			
CSCC[C@@H]1NC(=O)[C@H](CCCNC(=N)N)NC(=O)CNC(=O)[C@H](CCCCN)NC(=O)[C@H](Cc2ccccc2)NC(=O)[C@H](Cc2ccc(O)cc2)NC(=O)[C@H](CC(C)C)NC(=O)[C@H](CCC(=O)O)NC(=O)[C@H](Cc2ccccc2)NC(=O)[C@H](CO)NC(=O)[C@H](CCCCN)NC(=O)[C@H](C(C)C)NC(=O)[C@H]([C@@H](C)O)NC(=O)[C@@H]2CCCN2C(=O)[C@H]([C@@H](C)O)NC(=O)[C@H](C(C)C)NC(=O)[C@H](CO)NC(=O)[C@H](Cc2ccc(O)cc2)NC(=O)[C@H]([C@@H](C)O)NC(=O)[C@@H](NC(=O)[C@H](CCC(N)=O)NC(C)=O)CSSC[C@@H](C(=O)N2CCC[C@H]2C(N)=O)NC(=O)[C@H](CO)NC1=O [LBD1] (HELM PEPTIDE1{[ac].Q.C.T.Y.S.V.T.P.T.V.K.S.F.E.L.Y.F.K.G.R.M.S.C.P.[am]}$PEPTIDE1,PEPTIDE1,3:R3-24:R3$$$V2.0)	4.36 × 10^3 copies/ng DNA	apparent inhibition zones	Obvious inhibition zones	
CC(=O)N[C@@H](Cc1ccc(O)cc1)C(=O)N[C@H]1CSSC[C@@H](C(=O)N2CCC[C@H]2C(N)=O)NC(=O)[C@H](CCCCN)NC(=O)[C@H](CC(C)C)NC(=O)[C@H](CCC(=O)O)NC(=O)[C@H](C)NC(=O)[C@H](CCCNC(=N)N)NC(=O)[C@H](Cc2ccc(O)cc2)NC(=O)[C@H](Cc2c[nH]cn2)NC(=O)[C@H](C(C)C)NC(=O)[C@H](CCC(=O)O)NC(=O)[C@H](CC(C)C)NC(=O)[C@H](CCCCN)NC(=O)[C@H](CCCCN)NC(=O)[C@H](CC(C)C)NC(=O)[C@H](Cc2ccc(O)cc2)NC(=O)[C@@H]2CCCN2C(=O)[C@H](CO)NC(=O)[C@H](CCCNC(=N)N)NC(=O)[C@H](CO)NC(=O)[C@H](CC(C)C)NC(=O)[C@H](CC(C)C)NC1=O [LBD5] (HELM PEPTIDE1{[ac].Y.C.L.L.S.R.S.P.Y.L.K.K.L.E.V.H.Y.R.A.E.L.K.C.P.[am]}$PEPTIDE1,PEPTIDE1,3:R3-24:R3$$$V2.0)	2.07 × 10^3 copies/ng DNA			
CC[C@H](C)[C@@H]1NC(=O)[C@H](Cc2ccccc2)NC(=O)[C@H](Cc2ccc(O)cc2)NC(=O)[C@H](CC(C)C)NC(=O)[C@H](CCC(N)=O)NC(=O)[C@H](Cc2c[nH]c3ccccc23)NC(=O)[C@H](CCCNC(=N)N)NC(=O)[C@H](CCC(N)=O)NC(=O)[C@H](Cc2ccccc2)NC(=O)[C@H]([C@@H](C)O)NC(=O)[C@@H]2CCCN2C(=O)[C@H](CCCCN)NC(=O)[C@H](C(C)C)NC(=O)[C@H](CO)NC(=O)[C@H](Cc2ccc(O)cc2)NC(=O)[C@H](C(C)C)NC(=O)[C@@H](NC(=O)[C@H](Cc2ccc(O)cc2)NC(C)=O)CSSC[C@@H](C(=O)N2CCC[C@H]2C(N)=O)NC(=O)[C@H](Cc2c[nH]c3ccccc23)NC(=O)[C@H](CCSC)NC(=O)[C@H](CO)NC(=O)CNC1=O [LBD3] (HELM PEPTIDE1{[ac].Y.C.V.Y.S.V.K.P.T.F.Q.R.W.Q.L.Y.F.I.G.S.M.W.C.P.[am]}$PEPTIDE1,PEPTIDE1,3:R3-24:R3$$$V2.0)	1.19 × 10^5 copies/ng DNA		Obvious inhibition zones	
CC[C@H](C)[C@@H]1NC(=O)[C@H](Cc2ccccc2)NC(=O)[C@H](Cc2ccc(O)cc2)NC(=O)[C@H](CC(C)C)NC(=O)[C@H](CCC(=O)O)NC(=O)[C@H](Cc2ccccc2)NC(=O)CNC(=O)[C@H](CCC(N)=O)NC(=O)[C@H]([C@@H](C)CC)NC(=O)[C@H](CC(=O)O)NC(=O)[C@@H]2CCCN2C(=O)[C@H](CCCCN)NC(=O)[C@H](C(C)C)NC(=O)[C@H](CO)NC(=O)[C@H](Cc2ccc(O)cc2)NC(=O)[C@H](CO)NC(=O)[C@@H](NC(=O)[C@H](CO)NC(C)=O)CSSC[C@@H](C(=O)N2CCC[C@H]2C(N)=O)NC(=O)[C@H]([C@@H](C)O)NC(=O)[C@H](C(C)C)NC(=O)[C@H](CO)NC(=O)CNC1=O [LBD6] (HELM PEPTIDE1{[ac].S.C.S.Y.S.V.K.P.D.I.Q.G.F.E.L.Y.F.I.G.S.V.T.C.P.[am]}$PEPTIDE1,PEPTIDE1,3:R3-24:R3$$$V2.0)	1.55 × 10^5 copies/ng DNA	apparent inhibition zones		
Ac-S(CRYSQRPSFKRWELYFNGRMWC)P-NH2 (disulfide) [LBD4+K, same as LBD4 except for the replacement of a tyrosine residue by a lysine residue]	3.40 × 10^3 copies/ng DNA			
CSCC[C@@H]1NC(=O)[C@H](CCCNC(=N)N)NC(=O)CNC(=O)[C@H](CCCNC(=N)N)NC(=O)[C@H](Cc2ccccc2)NC(=O)[C@H](Cc2ccc(O)cc2)NC(=O)[C@H](CC(C)C)NC(=O)[C@H](CCC(N)=O)NC(=O)[C@H](Cc2c[nH]c3ccccc23)NC(=O)[C@H](CCCNC(=N)N)NC(=O)[C@H](CCCCN)NC(=O)[C@H](Cc2ccccc2)NC(=O)[C@H](CCCCN)NC(=O)[C@@H]2CCCN2C(=O)[C@H]([C@@H](C)O)NC(=O)[C@H](C(C)C)NC(=O)[C@H](CC(N)=O)NC(=O)[C@H](Cc2ccccc2)NC(=O)[C@H](CO)NC(=O)[C@@H](NC(=O)[C@H](Cc2ccc(O)cc2)NC(C)=O)CSSC[C@@H](C(=O)N2CCC[C@H]2C(N)=O)NC(=O)[C@H](Cc2c[nH]c3ccccc23)NC1=O [LBD2] (HELM PEPTIDE1{[ac].Y.C.S.F.N.V.T.P.K.F.K.R.W.Q.L.Y.F.R.G.R.M.W.C.P.[am]}$PEPTIDE1,PEPTIDE1,3:R3-24:R3$$$V2.0)	1.40 × 10^3 copies/ng DNA		Obvious inhibition zones	exhibited inhibition zones
Ac-Y(CSFNVTPKFQRWQLYFRGRMWC)P-NH2 (disulfide) [LBD2-K, same as LBD2 except for the replacement of a lysine residue by a glutamine residue]	5.14 × 10^4 copies/ng DNA			
CC[C@H](C)[C@@H]1NC(=O)[C@H](Cc2ccc(O)cc2)NC(=O)[C@@H]2CCCN2C(=O)[C@H](CCCCN)NC(=O)[C@H](C(C)C)NC(=O)[C@H]([C@@H](C)O)NC(=O)[C@H](Cc2ccccc2)NC(=O)[C@H](CCCCN)NC(=O)[C@@H](NC(=O)[C@H](CCC(=O)O)NC(C)=O)CSSC[C@@H](C(=O)N2CCC[C@H]2C(N)=O)NC(=O)[C@H](Cc2c[nH]c3ccccc23)NC(=O)[C@H](CCSC)NC(=O)[C@H](CCCNC(=N)N)NC(=O)CNC(=O)[C@H](CCCCN)NC(=O)[C@H](Cc2ccc(O)cc2)NC(=O)[C@H](Cc2ccc(O)cc2)NC(=O)[C@H](CC(C)C)NC(=O)[C@H](CCC(N)=O)NC(=O)[C@H](Cc2ccccc2)NC(=O)[C@H](CCCNC(=N)N)NC(=O)[C@H](CCCCN)NC1=O [LBD7] (HELM PEPTIDE1{[ac].E.C.K.F.T.V.K.P.Y.I.K.R.F.Q.L.Y.Y.K.G.R.M.W.C.P.[am]}$PEPTIDE1,PEPTIDE1,3:R3-24:R3$$$V2.0)	5.07 × 10^3 copies/ng DNA	apparent inhibition zones		exhibited inhibition zones
